As a reminder, the IC50 is the point on the concentration scale where inhibition reaches its midpoint.

Structures are written as SMILES. Where only a bound is given, the exact number is not on record here.

The values that follow come from ChEMBL document CHEMBL3098085, “Novel 2-chloro-4-anilino-quinazoline derivatives as EGFR and VEGFR-2 dual inhibitors” (Eur J Med Chem, 2014).

Test [1] concerns the target Epidermal growth factor receptor (Homo sapiens, UniProt P00533). The test can be described thus: Inhibition of wild type EGFR (unknown origin) assessed as inhibition of 33[Pi] incorporation after 60 mins by scintillation counting.
In test [2] the target is Vascular endothelial growth factor receptor 2 (Homo sapiens, UniProt P35968). The test can be described thus: Inhibition of VEGFR2 (unknown origin) assessed as inhibition of 33[Pi] incorporation after 60 mins by scintillation counting.
Vascular endothelial growth factor receptor 2, sequence (P35968 whole entry): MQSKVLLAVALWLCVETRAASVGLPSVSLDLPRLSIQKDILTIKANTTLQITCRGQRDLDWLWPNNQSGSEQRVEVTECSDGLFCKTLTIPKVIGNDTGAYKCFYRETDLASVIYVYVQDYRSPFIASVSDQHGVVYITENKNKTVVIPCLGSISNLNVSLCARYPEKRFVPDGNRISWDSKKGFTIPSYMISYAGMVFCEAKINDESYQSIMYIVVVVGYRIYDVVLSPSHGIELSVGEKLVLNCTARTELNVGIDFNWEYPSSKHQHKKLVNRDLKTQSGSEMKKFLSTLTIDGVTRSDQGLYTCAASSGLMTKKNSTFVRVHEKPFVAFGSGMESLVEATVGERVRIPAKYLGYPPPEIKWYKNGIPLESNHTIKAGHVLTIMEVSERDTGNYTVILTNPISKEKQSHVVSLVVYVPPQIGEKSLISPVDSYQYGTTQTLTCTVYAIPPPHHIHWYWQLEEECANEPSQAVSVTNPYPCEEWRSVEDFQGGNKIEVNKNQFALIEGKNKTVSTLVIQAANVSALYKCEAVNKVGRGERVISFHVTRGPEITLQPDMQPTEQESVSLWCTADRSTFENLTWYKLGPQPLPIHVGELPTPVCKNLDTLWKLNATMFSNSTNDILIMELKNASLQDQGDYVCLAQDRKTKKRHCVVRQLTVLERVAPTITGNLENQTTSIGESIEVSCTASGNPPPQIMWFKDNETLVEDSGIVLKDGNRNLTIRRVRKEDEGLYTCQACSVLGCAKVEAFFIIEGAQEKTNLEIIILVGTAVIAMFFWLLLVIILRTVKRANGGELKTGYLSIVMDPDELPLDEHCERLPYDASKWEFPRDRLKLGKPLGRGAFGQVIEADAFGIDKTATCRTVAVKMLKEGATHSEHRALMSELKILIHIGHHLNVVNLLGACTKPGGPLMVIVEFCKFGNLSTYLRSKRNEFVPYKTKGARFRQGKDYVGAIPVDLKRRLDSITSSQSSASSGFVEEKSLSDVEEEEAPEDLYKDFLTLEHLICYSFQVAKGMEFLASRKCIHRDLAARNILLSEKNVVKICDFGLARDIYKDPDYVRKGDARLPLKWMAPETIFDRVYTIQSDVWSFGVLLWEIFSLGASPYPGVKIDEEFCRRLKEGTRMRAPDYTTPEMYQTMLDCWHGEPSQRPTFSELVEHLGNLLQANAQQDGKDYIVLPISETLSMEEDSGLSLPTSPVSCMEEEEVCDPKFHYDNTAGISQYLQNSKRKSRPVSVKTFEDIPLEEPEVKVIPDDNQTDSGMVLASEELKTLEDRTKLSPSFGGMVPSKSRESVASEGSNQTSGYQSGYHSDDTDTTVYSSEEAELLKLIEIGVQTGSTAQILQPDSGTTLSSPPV

Epidermal growth factor receptor, sequence (P00533 whole entry): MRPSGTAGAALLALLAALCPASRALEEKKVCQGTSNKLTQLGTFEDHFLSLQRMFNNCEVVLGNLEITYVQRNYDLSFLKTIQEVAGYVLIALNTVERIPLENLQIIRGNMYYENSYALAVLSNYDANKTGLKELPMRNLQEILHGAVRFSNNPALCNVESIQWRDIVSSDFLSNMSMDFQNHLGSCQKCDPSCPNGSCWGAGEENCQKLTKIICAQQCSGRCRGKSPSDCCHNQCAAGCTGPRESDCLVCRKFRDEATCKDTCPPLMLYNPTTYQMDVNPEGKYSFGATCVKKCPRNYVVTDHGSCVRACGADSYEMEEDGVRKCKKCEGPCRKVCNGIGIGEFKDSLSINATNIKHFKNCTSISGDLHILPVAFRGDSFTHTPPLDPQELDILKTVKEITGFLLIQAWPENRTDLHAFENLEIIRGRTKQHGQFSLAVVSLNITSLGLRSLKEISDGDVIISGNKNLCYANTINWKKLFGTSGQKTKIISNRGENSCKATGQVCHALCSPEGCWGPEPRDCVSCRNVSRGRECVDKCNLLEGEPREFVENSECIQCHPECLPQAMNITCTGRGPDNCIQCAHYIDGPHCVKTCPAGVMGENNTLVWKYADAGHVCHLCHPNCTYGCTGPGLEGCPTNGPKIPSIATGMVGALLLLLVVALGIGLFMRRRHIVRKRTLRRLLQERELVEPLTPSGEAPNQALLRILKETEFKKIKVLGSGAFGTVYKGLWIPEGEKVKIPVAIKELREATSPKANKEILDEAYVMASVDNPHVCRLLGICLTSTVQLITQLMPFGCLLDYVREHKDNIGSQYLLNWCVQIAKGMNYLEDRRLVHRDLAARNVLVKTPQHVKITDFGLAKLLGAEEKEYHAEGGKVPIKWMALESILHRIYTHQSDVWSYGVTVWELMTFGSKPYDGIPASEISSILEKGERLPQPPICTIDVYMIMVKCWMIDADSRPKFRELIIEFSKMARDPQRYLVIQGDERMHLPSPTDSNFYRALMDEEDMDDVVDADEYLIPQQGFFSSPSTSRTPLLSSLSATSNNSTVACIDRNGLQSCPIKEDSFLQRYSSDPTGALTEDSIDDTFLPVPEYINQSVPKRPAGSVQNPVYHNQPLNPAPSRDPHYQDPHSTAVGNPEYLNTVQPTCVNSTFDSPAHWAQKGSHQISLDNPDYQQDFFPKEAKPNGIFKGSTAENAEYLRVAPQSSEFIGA

With `O=S(=O)(Nc1nccs1)c1ccc(Nc2nc(Cl)nc3cc4c(cc23)OCO4)cc1`, the IC50 in test [1] and in test [2] was > 100 µM in each case.
`COc1cc2nc(Cl)nc(Nc3ccc(S(=O)(=O)N(C)C)cc3)c2cc1OC`: the values for the half-inhibitory concentration (IC50) in test [1] and in test [2] were 67.2 µM and 43.3 µM, respectively.
Regarding `CN(C)S(=O)(=O)c1ccc(Nc2nc(Cl)nc3cc4c(cc23)OCO4)cc1`, the IC50 in test [1] came to 18.3 µM; in test [2], 23.4 µM.
In the same order, the values of `CN(C)S(=O)(=O)c1ccc(Nc2nc(Cl)nc3ccccc23)cc1` are > 100 µM and > 100 µM.
On the same counts, the results for `COc1cc2nc(Cl)nc(Nc3ccc(S(C)(=O)=O)cc3)c2cc1OC` are 61.5 µM and > 100 µM.
Turning to `CS(=O)(=O)c1ccc(Nc2nc(Cl)nc3cc4c(cc23)OCO4)cc1`, the IC50 in test [1] and in test [2] was > 100 µM in each case.
Turning to `COc1cc2nc(Cl)nc(Nc3ccc(S(N)(=O)=O)cc3)c2cc1OC`, the values for the half-inhibitory concentration (IC50) in test [1] and in test [2] were 2.37 µM and 1.02 µM, respectively.
On the same counts, the results for `NS(=O)(=O)c1ccc(Nc2nc(Cl)nc3cc4c(cc23)OCO4)cc1` are 34.6 µM and 26.9 µM.
For `COc1cc2nc(Cl)nc(Nc3ccc(N(C)C)cc3)c2cc1OC`, the IC50 was determined as 36 µM in test [1] and 39.3 µM in test [2].
Turning to `CN(C)c1ccc(Nc2nc(Cl)nc3cc4c(cc23)OCO4)cc1`, the IC50 in test [1] and in test [2] was > 100 µM throughout.
`CNS(=O)(=O)c1ccc(Nc2nc(Cl)nc3cc(OC)c(OC)cc23)cc1`: the 50% inhibitory concentration (IC50) in test [1] turned out to be 1.63 µM; in test [2], 0.85 µM.
In the same order, the values of `COc1cc2nc(Cl)nc(Nc3ccc(O)cc3)c2cc1OC` are 4.3 µM and 2.1 µM.
In the same order, the values of `COc1cc2nc(Cl)nc(Nc3ccc(S(=O)(=O)O)cc3)c2cc1OC` are > 100 µM and > 100 µM.
In the same order, the values of `COc1cc2nc(Cl)nc(Nc3ccc(C(=O)O)cc3)c2cc1OC` are > 100 µM and > 100 µM.
As for `COc1cc2nc(Cl)nc(Nc3ccc(C(N)=O)cc3)c2cc1OC`, the concentration for half-maximal inhibition (IC50) in test [1] was 0.9 µM; in test [2] it was 1.17 µM.
Regarding `COc1cc2nc(Cl)nc(Nc3ccc(NC(C)=O)cc3)c2cc1OC`, the IC50 in test [1] was found to be 37.6 µM; in test [2] it was 1.99 µM.
In the case of `COc1cc2nc(Cl)nc(Nc3ccc(S(=O)(=O)Nc4nccs4)cc3)c2cc1OC`, the concentration for half-maximal inhibition (IC50) stood at 9.7 µM in test [1] and 7.79 µM in test [2].
